Data: the NIST ThermoML archive (doi:10.1016/j.jct.2017.03.006)
Numbers after ± are expanded uncertainties.

Experiments:
[1] = molar heat capacity at constant pressure; conditions: Liquid, Flow calorimetry
[2] = Liquid; for mass density: Vibrating tube method; for viscosity: Concentric cylinders viscometry

CCC(C)O (stereo not drawn) [butan-2-ol]
Conditions | mass density [kg/m3] | molar heat capacity at constant pressure [J/K/mol] | viscosity [mPa·s]
[1], 293.15 K, 100 kPa | – | 189.1 ± 2.7 | –
[1], 293.15 K, 5000 kPa | – | 187.1 ± 2.6 | –
[1], 293.15 K, 10000 kPa | – | 185.5 ± 2.6 | –
[1], 293.15 K, 15000 kPa | – | 185.2 ± 2.6 | –
[1], 293.15 K, 20000 kPa | – | 183.6 ± 2.6 | –
[1], 293.15 K, 25000 kPa | – | 182.7 ± 2.6 | –
[1], 313.15 K, 100 kPa | – | 214.9 ± 3 | –
[1], 313.15 K, 5000 kPa | – | 213.1 ± 3 | –
[1], 313.15 K, 10000 kPa | – | 211.1 ± 3 | –
[1], 313.15 K, 15000 kPa | – | 209.4 ± 2.9 | –
[1], 313.15 K, 20000 kPa | – | 207.2 ± 2.9 | –
[1], 313.15 K, 25000 kPa | – | 204.9 ± 2.9 | –
[2], 273.15 K, 100 kPa | 822.3 ± 0.7 | – | –
[2], 273.15 K, 1000 kPa | 822.7 ± 0.7 | – | –
[2], 273.15 K, 2000 kPa | 823.4 ± 0.7 | – | –
[2], 273.15 K, 5000 kPa | 825.4 ± 0.7 | – | –
[2], 273.15 K, 10000 kPa | 828.7 ± 0.7 | – | –
[2], 273.15 K, 15000 kPa | 831.8 ± 0.7 | – | –
[2], 273.15 K, 20000 kPa | 834.7 ± 0.7 | – | –
[2], 273.15 K, 30000 kPa | 840.4 ± 0.8 | – | –
[2], 273.15 K, 40000 kPa | 845.7 ± 0.8 | – | –
[2], 273.15 K, 50000 kPa | 850.7 ± 0.8 | – | –
[2], 273.15 K, 60000 kPa | 855.4 ± 0.8 | – | –
[2], 273.15 K, 70000 kPa | 859.9 ± 0.8 | – | –
[2], 273.15 K, 80000 kPa | 864.3 ± 0.8 | – | –
[2], 273.15 K, 90000 kPa | 868.4 ± 0.9 | – | –
[2], 273.15 K, 100000 kPa | 872.4 ± 0.9 | – | –
[2], 273.15 K, 110000 kPa | 876.3 ± 0.9 | – | –
[2], 273.15 K, 120000 kPa | 879.9 ± 0.9 | – | –
[2], 273.15 K, 130000 kPa | 883.5 ± 0.9 | – | –
[2], 273.15 K, 140000 kPa | 887.2 ± 0.9 | – | –
[2], 293.15 K, 100 kPa | 806.3 ± 0.7 | – | 3.725 ± 0.076
[2], 293.15 K, 1000 kPa | 807 ± 0.7 | – | –
[2], 293.15 K, 2000 kPa | 807.8 ± 0.7 | – | –
[2], 293.15 K, 5000 kPa | 810 ± 0.7 | – | –
[2], 293.15 K, 10000 kPa | 813.6 ± 0.7 | – | –
[2], 293.15 K, 15000 kPa | 817 ± 0.7 | – | –
[2], 293.15 K, 20000 kPa | 820.2 ± 0.7 | – | –
[2], 293.15 K, 30000 kPa | 826.5 ± 0.8 | – | –
[2], 293.15 K, 40000 kPa | 832.3 ± 0.8 | – | –
[2], 293.15 K, 50000 kPa | 837.7 ± 0.8 | – | –
[2], 293.15 K, 60000 kPa | 842.8 ± 0.8 | – | –
[2], 293.15 K, 70000 kPa | 847.7 ± 0.8 | – | –
[2], 293.15 K, 80000 kPa | 852.3 ± 0.9 | – | –
[2], 293.15 K, 90000 kPa | 856.7 ± 0.9 | – | –
[2], 293.15 K, 100000 kPa | 860.9 ± 0.9 | – | –
[2], 293.15 K, 110000 kPa | 865 ± 0.9 | – | –
[2], 293.15 K, 120000 kPa | 868.8 ± 1 | – | –
[2], 293.15 K, 130000 kPa | 872.7 ± 1 | – | –
[2], 293.15 K, 140000 kPa | 876.3 ± 1 | – | –
[2], 303.15 K, 100 kPa | – | – | 2.555 ± 0.053
[2], 313.15 K, 100 kPa | 789.4 ± 0.7 | – | 1.814 ± 0.038
[2], 313.15 K, 1000 kPa | 790.1 ± 0.7 | – | –
[2], 313.15 K, 2000 kPa | 791 ± 0.7 | – | –
[2], 313.15 K, 5000 kPa | 793.5 ± 0.7 | – | –
[2], 313.15 K, 10000 kPa | 797.5 ± 0.7 | – | –
[2], 313.15 K, 15000 kPa | 801.4 ± 0.7 | – | –
[2], 313.15 K, 20000 kPa | 805.1 ± 0.7 | – | –
[2], 313.15 K, 30000 kPa | 811.9 ± 0.8 | – | –
[2], 313.15 K, 40000 kPa | 818.3 ± 0.8 | – | –
[2], 313.15 K, 50000 kPa | 824.1 ± 0.8 | – | –
[2], 313.15 K, 60000 kPa | 829.6 ± 0.8 | – | –
[2], 313.15 K, 70000 kPa | 835 ± 0.9 | – | –
[2], 313.15 K, 80000 kPa | 839.9 ± 0.9 | – | –
[2], 313.15 K, 90000 kPa | 844.6 ± 0.9 | – | –
[2], 313.15 K, 100000 kPa | 849 ± 0.9 | – | –
[2], 313.15 K, 110000 kPa | 853.3 ± 1 | – | –
[2], 313.15 K, 120000 kPa | 857.5 ± 1 | – | –
[2], 313.15 K, 130000 kPa | 861.5 ± 1 | – | –
[2], 313.15 K, 140000 kPa | 865.4 ± 1 | – | –
[2], 323.15 K, 100 kPa | – | – | 1.331 ± 0.028
[2], 333.15 K, 100 kPa | 770.7 ± 0.7 | – | 1.007 ± 0.021
[2], 333.15 K, 1000 kPa | 771.6 ± 0.7 | – | –
[2], 333.15 K, 2000 kPa | 772.6 ± 0.7 | – | –
[2], 333.15 K, 5000 kPa | 775.5 ± 0.7 | – | –
[2], 333.15 K, 10000 kPa | 780.1 ± 0.7 | – | –
[2], 333.15 K, 15000 kPa | 784.4 ± 0.7 | – | –
[2], 333.15 K, 20000 kPa | 788.6 ± 0.7 | – | –
[2], 333.15 K, 30000 kPa | 796.2 ± 0.8 | – | –
[2], 333.15 K, 40000 kPa | 803.2 ± 0.8 | – | –
[2], 333.15 K, 50000 kPa | 809.6 ± 0.8 | – | –
[2], 333.15 K, 60000 kPa | 815.7 ± 0.9 | – | –
[2], 333.15 K, 70000 kPa | 821.4 ± 0.9 | – | –
[2], 333.15 K, 80000 kPa | 826.7 ± 0.9 | – | –
[2], 333.15 K, 90000 kPa | 831.8 ± 0.9 | – | –
[2], 333.15 K, 100000 kPa | 836.6 ± 1 | – | –
[2], 333.15 K, 110000 kPa | 841.2 ± 1 | – | –
[2], 333.15 K, 120000 kPa | 845.5 ± 1 | – | –
[2], 333.15 K, 130000 kPa | 849.8 ± 1.1 | – | –
[2], 333.15 K, 140000 kPa | 853.9 ± 1.1 | – | –
